Data taken from ChEMBL document CHEMBL4602676, “Discovery and Development of 3-(6-Chloropyridine-3-yloxymethyl)-2-azabicyclo[3.1.0]hexane Hydrochloride (SUVN-911): A Novel, Potent, Selective, and Orally Active Neuronal Nicotinic Acetylcholine α4β2 Receptor Antagonist for the Treatment of Depression” (J Med Chem, 2020).

Columns and labels:
[1] = Metabolic stability in human liver microsomes assessed as compound metabolism incubated for 30 mins in presence of NADPH by LC-MS/MS analysis; assay type: ADME, Microsome; conditions: read-out: Drug metabolism
[2] = Metabolic stability in rat liver microsomes assessed as compound metabolism incubated for 30 mins in presence of NADPH by LC-MS/MS analysis; assay type: ADME, Microsome; conditions: read-out: Drug metabolism
[3] = AUC in Wistar rat at 10 ml/kg, po or 2 ml/kg, iv measured upto 24 hrs by LC-MS/MS analysis; assay type: ADME, organism-based; conditions: in vivo
[4] = Half life in Wistar rat at 10 ml/kg, po or 2 ml/kg, iv measured upto 24 hrs by LC-MS/MS analysis; assay type: ADME, organism-based; conditions: in vivo
[5] = Toxicity in telemetered Beagle dog assessed as change in body weight up to 25 mg/kg, po; assay type: organism-based, Canis lupus familiaris; conditions: in vivo
[6] = Volume of distribution in Beagle dog at 1 mg/kg, iv by LC-MS/MS analysis; assay type: ADME, organism-based, Canis lupus familiaris; conditions: in vivo
[7] = target: Cytochrome P450 2D6 (Homo sapiens, UniProt P10635); test: Inhibition of CYP2D6 in human liver microsomes using dextromethorphan as substrate incubated for 12 min in presence of NADPH by LC-MS/MS analysis; assay type: ADME
Cytochrome P450 2D6, sequence (P10635 whole entry): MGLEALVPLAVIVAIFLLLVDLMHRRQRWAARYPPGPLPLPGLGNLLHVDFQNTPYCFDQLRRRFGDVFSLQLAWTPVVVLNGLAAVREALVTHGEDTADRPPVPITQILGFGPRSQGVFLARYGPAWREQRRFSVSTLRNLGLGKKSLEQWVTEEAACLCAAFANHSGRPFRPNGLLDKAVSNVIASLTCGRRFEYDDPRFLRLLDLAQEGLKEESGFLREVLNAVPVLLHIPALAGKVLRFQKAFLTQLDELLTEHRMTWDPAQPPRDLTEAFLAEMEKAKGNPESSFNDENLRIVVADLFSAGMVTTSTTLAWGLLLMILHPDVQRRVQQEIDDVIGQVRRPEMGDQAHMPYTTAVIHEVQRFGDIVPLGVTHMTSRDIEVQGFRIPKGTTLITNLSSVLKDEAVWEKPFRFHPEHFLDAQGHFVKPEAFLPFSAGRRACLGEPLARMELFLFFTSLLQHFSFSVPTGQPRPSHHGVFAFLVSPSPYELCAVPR

[8] = test system: Rattus norvegicus; test: Antidepressant activity in Wistar rat assessed as reduction in immobility at 3 mg/kg, po administrated for 3 days and measured for 5 mins by forced swim test relative to control; assay type: functional; design: scale not given: the % may be the effect or the level left
[9] = Tmax in Beagle dog at 3 mg/kg, po by LC-MS/MS analysis; assay type: ADME, organism-based, Canis lupus familiaris; conditions: in vivo
[10] = target: T1, Neuronal acetylcholine receptor; alpha4/beta2 (Rattus norvegicus, UniProt P09483+P12390); test: In vivo receptor occupancy at alpha4beta2 nAChR in Wistar rat assessed as brain concentration pretreated for 15 mins followed by non radiolabelled ZW-104 tracer treatment and measured after 45 mins by LC-MS/MS analysis; assay type: functional, organism-based
T1 sequence (P09483 whole entry): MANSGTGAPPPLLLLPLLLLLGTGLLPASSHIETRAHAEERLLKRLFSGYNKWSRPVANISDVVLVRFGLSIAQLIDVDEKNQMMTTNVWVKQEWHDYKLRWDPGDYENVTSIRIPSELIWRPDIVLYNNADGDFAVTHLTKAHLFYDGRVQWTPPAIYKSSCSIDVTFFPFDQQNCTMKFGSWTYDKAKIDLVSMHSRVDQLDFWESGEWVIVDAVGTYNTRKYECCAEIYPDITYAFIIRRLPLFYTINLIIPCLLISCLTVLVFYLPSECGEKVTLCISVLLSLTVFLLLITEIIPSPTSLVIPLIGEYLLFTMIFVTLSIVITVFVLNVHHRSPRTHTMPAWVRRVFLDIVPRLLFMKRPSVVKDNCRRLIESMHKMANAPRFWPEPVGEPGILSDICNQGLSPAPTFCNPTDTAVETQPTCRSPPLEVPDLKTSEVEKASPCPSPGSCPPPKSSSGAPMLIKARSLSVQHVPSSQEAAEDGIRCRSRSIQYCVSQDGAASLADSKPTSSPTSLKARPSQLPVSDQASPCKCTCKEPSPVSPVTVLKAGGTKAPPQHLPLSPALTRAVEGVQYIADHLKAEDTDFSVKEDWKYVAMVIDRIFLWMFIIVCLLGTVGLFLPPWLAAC
T1 sequence (P12390 whole entry): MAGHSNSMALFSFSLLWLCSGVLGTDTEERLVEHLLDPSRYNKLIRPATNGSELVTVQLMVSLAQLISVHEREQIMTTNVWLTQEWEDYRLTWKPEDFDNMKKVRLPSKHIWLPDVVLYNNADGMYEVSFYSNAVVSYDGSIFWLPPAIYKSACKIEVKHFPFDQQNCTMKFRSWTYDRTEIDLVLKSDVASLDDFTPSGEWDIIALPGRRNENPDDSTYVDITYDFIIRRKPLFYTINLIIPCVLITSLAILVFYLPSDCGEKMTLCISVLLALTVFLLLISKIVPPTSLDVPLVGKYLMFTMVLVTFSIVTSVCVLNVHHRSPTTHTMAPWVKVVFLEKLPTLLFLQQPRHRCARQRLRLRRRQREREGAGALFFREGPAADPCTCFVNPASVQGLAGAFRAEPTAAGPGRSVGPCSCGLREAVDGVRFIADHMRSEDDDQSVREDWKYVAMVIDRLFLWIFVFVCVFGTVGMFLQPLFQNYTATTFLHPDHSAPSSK

[11] = target: T1, Neuronal acetylcholine receptor; alpha4/beta2; test: In vivo receptor occupancy at alpha4beta2 nAChR in Wistar rat assessed as plasma concentration pretreated for 15 mins followed by non radiolabelled ZW-104 tracer treatment and measured after 45 mins by LC-MS/MS analysis; assay type: functional, organism-based
[12] = Protein binding in rat plasma assessed as unbound fraction at […] incubated for 6 hrs by LC-MS/MS analysis; assay type: ADME, cell-free
[13] = target: T2, Cytochrome P450 1A2 (Homo sapiens, UniProt P05177); test: Induction of CYP1A2 (unknown origin); assay type: ADME
T2 sequence (P05177 whole entry): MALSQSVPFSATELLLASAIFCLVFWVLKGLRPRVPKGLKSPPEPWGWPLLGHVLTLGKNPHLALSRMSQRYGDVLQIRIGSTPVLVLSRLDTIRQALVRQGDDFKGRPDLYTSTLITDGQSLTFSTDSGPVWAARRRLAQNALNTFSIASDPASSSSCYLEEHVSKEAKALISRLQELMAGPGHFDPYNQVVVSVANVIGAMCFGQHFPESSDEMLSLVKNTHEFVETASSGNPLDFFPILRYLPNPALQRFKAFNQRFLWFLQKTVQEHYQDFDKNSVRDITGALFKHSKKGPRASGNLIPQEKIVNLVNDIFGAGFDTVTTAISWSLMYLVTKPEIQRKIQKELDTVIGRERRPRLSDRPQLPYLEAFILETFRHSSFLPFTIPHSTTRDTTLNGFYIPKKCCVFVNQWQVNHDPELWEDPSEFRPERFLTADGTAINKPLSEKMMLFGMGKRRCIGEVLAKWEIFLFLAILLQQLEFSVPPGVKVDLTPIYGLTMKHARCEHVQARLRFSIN

[14] = target: Cytochrome P450 3A4 (Homo sapiens, UniProt P08684); test: Induction of CYP3A4 (unknown origin); assay type: ADME
Cytochrome P450 3A4, sequence (P08684 whole entry): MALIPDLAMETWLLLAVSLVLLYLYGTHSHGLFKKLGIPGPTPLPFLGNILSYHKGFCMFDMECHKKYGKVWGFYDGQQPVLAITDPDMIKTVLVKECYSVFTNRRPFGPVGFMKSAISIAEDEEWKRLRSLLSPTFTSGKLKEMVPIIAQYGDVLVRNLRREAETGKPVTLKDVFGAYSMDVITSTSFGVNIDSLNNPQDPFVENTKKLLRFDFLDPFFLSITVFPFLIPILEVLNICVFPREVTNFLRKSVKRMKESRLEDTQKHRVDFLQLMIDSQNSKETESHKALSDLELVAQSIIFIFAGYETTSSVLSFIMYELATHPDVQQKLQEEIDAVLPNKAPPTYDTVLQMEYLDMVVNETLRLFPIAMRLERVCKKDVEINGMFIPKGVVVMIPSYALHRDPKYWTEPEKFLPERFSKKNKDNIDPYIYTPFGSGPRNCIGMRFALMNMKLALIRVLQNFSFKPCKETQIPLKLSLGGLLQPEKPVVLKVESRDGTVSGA

[15] = target: T3, Solute carrier family 22 member 6 (Homo sapiens, UniProt Q4U2R8); test: Inhibition of OAT1 (unknown origin)
T3 sequence (Q4U2R8 whole entry): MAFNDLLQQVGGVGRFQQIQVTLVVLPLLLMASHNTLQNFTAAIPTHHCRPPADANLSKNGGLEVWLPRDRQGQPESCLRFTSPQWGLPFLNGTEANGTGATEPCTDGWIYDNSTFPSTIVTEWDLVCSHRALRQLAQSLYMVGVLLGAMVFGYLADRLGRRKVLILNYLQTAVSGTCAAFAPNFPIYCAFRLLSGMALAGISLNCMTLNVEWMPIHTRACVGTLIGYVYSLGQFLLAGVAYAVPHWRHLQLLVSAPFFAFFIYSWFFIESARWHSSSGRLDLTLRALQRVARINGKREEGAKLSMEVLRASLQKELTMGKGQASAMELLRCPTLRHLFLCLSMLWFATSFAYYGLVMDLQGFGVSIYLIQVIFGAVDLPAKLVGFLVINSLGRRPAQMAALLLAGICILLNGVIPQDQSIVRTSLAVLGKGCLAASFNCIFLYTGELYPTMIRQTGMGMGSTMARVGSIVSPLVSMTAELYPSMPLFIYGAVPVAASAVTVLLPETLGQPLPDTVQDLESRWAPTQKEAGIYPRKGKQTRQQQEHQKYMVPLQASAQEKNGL

[16] = target: T4, Solute carrier organic anion transporter family member 1B3 (Homo sapiens, UniProt Q9NPD5); test: Inhibition of OATP1B3 (unknown origin)
T4 sequence (Q9NPD5 whole entry): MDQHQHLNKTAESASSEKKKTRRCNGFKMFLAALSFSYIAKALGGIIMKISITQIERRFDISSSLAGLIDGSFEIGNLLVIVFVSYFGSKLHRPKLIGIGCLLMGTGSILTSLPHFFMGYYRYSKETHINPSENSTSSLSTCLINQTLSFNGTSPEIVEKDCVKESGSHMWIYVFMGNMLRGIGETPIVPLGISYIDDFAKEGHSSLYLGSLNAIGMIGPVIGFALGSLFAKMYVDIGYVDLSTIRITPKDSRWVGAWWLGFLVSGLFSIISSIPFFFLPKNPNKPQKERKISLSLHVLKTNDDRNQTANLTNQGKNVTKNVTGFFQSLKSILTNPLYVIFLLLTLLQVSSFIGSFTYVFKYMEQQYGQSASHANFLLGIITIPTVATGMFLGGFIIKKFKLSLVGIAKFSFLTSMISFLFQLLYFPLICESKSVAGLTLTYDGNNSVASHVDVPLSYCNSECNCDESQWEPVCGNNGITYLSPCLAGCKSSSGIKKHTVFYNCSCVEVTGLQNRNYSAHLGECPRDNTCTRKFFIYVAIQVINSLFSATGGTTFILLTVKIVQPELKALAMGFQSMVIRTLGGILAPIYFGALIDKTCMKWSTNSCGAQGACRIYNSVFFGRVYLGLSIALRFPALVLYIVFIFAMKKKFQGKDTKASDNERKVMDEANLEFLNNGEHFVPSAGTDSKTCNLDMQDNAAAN

[17] = Genotoxicity in Salmonella typhimurium TA1535 in presence of metabolic activation; assay type: toxicity; conditions: salmonella enterica subsp. enterica serovar typhimurium
[18] = Genotoxicity in Salmonella typhimurium TA1537 in presence of metabolic activation; assay type: toxicity; conditions: salmonella enterica subsp. enterica serovar typhimurium
[19] = Genotoxicity in Salmonella typhimurium TA98 in presence of metabolic activation; assay type: toxicity; conditions: salmonella enterica subsp. enterica serovar typhimurium
[20] = Genotoxicity in Salmonella typhimurium TA100 in presence of metabolic activation; assay type: toxicity; conditions: salmonella enterica subsp. enterica serovar typhimurium

Cl.Clc1ccc(OC[C@@H]2C[C@H]3C[C@H]3N2)cn1
metabolised at 0.5 h [1]: 33.4% | metabolised at 0.5 h [2]: 32.2% | AUC at 24 h [3]: 3510 ng·h/mL | half-life [4]: 3.34 h | Activity [5]: Non-Toxic | Vd [6]: 1.3 L/kg | IC50 [7]: 38.1 µM | Activity [8]: 35.81% | Tmax [9]: 0.3 h | EC50 [10]: 334 µM | EC50 [11]: 259 µM | fraction unbound at 6 h [12]: 0.31 | Activity [13]: Not Active | Activity [14]: Not Active | inhibition (INH) [15]: Not Active | inhibition (INH) [16]: Not Active | Activity [17]: Non-Toxic | Activity [18]: Non-Toxic | Activity [19]: Non-Toxic | Activity [20]: Non-Toxic
